From US6589993B2, “Treating vancomycin-intermediates and multiresistant staphylococci infection with thiamphenicol or a salt thereof” (Zambon Group S.p.A., priority 2000, dated 2003)
≈ marks a conversion by molar mass, not a printed value. Where two headings read alike, the source gives them in different places.

Columns and labels:
[1] = test system: S. aureus vancomycin-intermediates (VISA) Met-R strains; test: MIC determination (NCCLS broth microdilution), VISA Met-R strains; format: cell-based, Staphylococcus aureus; details: for MIC: antibiotype Oxa, Cip, Clin, Ery
Protocol: (§1) The MICs of thiamphenicol and of other antibiotics was obtained by using the method proposed by NCCLS (National Committee for Clinical Laboratory Standards, 1999).
(§2) Various antibiotic concentrations were added to bacteria in exponental growth (final inoculum 5×10^5 […]); dilution in Mb (cation-supplemented Mueller-Hinton broth) and distribution on a microplate by using an automatic diluting machine Biomek 1000 (Beckman, USA). MHb charged with 2% NaCl was used to test the methicillin activity.
(§3) The antibiotic concentration which hinders a visible growth after 18-24 hours of incubation at 37° C., was registered as MIC.
(§4) S. aureus ATCC 29213 was used as quality control strain.

[2] = test system: S. aureus Met-R multiresistant strains; test: MIC determination (NCCLS broth microdilution), methicillin-resistant multiresistant S. aureus strains; format: cell-based, Staphylococcus aureus; details: for MIC: antibiotype Oxa, Ery, read-out: MIC
Protocol: as §1, §2, §3, §4

CCC[C@@H]1C[C@@H](C(=O)N[C@@H]([C@H]2O[C@H](SC)[C@H](O)[C@@H](O)[C@H]2O)[C@H](C)Cl)N(C)C1 [Clindamycin, clindamycin]
MIC ([1]; Staphylococcus aureus, Strain 51 VISA, read-out: MIC): > 64 µg/mL | MIC ([1]; Strain 52 VISA): >64 µg/mL | MIC Range ([1]; VISA (2) Met-R): >64 mg/L | % susceptible at breakpoint ([2]; S. aureus (50) Met-R, NCCLS (1999) breakpoints): 8% | MIC ([2]; Staphylococcus aureus, Strain 1, Cip, Clin, Gm): > 64 µg/mL | MIC ([2]; Staphylococcus aureus, Strain 2, Clin, Fos): > 64 µg/mL | MIC ([2]; Staphylococcus aureus, Strain 3, Cip, Clin, Gm): > 64 µg/mL | MIC ([2]; Staphylococcus aureus, Strain 4, Cip, Gm): ≤ 0.06 µg/mL | MIC ([2]; Staphylococcus aureus, Strain 5, Cip, Clin): > 64 µg/mL | MIC ([2]; Staphylococcus aureus, Strain 6, Clin, Gm): > 64 µg/mL | MIC ([2]; Staphylococcus aureus, Strain 7, Cip, Gm): ≤ 0.06 µg/mL | MIC ([2]; Staphylococcus aureus, Strain 8, Cip, Clin): > 64 µg/mL | MIC ([2]; Staphylococcus aureus, Strain 9, Cip, Clin, Gm): > 64 µg/mL | MIC ([2]; Staphylococcus aureus, Strain 10, Cip, Clin, Gm): 64 µg/mL (≈ 151 µM) | MIC ([2]; Staphylococcus aureus, Strain 11, Clin, Rif): > 64 µg/mL | MIC ([2]; Staphylococcus aureus, Strain 12, Cip, Clin): > 64 µg/mL | MIC ([2]; Staphylococcus aureus, Strain 13, Cip, Clin): > 64 µg/mL | MIC ([2]; Staphylococcus aureus, Strain 14, Clin, Cip): > 64 µg/mL | MIC ([2]; Staphylococcus aureus, Strain 15, Cip, Clin, Gm): > 64 µg/mL | MIC ([2]; Staphylococcus aureus, Strain 16, Cip, Clin): > 64 µg/mL | MIC ([2]; Staphylococcus aureus, Strain 17, Cip, Clin): > 64 µg/mL | MIC ([2]; Staphylococcus aureus, Strain 18, Cip, Clin, Gm): > 64 µg/mL | MIC ([2]; Staphylococcus aureus, Strain 19, Cip, Clin, Gm): > 64 µg/mL | MIC ([2]; Staphylococcus aureus, Strain 20, Cip, Clin, Gm): 64 µg/mL (≈ 151 µM) | MIC ([2]; Staphylococcus aureus, Strain 21, Cip, Clin, Gm): > 64 µg/mL | MIC ([2]; Staphylococcus aureus, Strain 22, Cip, Clin): > 64 µg/mL | MIC ([2]; Staphylococcus aureus, Strain 23, Cip, Clin, Gm): > 64 µg/mL | MIC ([2]; Staphylococcus aureus, Strain 24, Cip, Clin, Gm): > 64 µg/mL | MIC ([2]; Staphylococcus aureus, Strain 25, Cip, Clin, Gm): 64 µg/mL (≈ 151 µM) | MIC ([2]; Staphylococcus aureus, Strain 26, Cip, Clin, Fos, Gm): 64 µg/mL (≈ 151 µM) | MIC ([2]; Staphylococcus aureus, Strain 27, Cip, Clin, Fos, Gm): 64 µg/mL (≈ 151 µM) | MIC ([2]; Staphylococcus aureus, Strain 28, Cip, Clin, Gm): > 64 µg/mL | MIC ([2]; Staphylococcus aureus, Strain 29, Clin, Fos): > 64 µg/mL | MIC ([2]; Staphylococcus aureus, Strain 30, Cip, Clin, Gm, SXT, Dox): 16 µg/mL (≈ 37.6 µM) | MIC ([2]; Staphylococcus aureus, Strain 31, Cip, Clin, Fox, Gm): > 64 µg/mL | MIC ([2]; Staphylococcus aureus, Strain 32, Cip, Clin, Gm, SXT, Rif): 64 µg/mL (≈ 151 µM) | MIC ([2]; Staphylococcus aureus, Strain 33, Cip, Clin, Gm): > 64 µg/mL | MIC ([2]; Staphylococcus aureus, Strain 34, Cip, Clin, Gm): > 64 µg/mL | MIC ([2]; Staphylococcus aureus, Strain 35, Cip, Clin, Gm): 64 µg/mL (≈ 151 µM) | MIC ([2]; Staphylococcus aureus, Strain 36, Cip, Clin, Fos): 64 µg/mL (≈ 151 µM) | MIC ([2]; Staphylococcus aureus, Strain 37, Cip, Clin, Fos, Gm): 64 µg/mL (≈ 151 µM) | MIC ([2]; Staphylococcus aureus, Strain 38, Cip, Gm): ≤ 0.06 µg/mL | MIC ([2]; Staphylococcus aureus, Strain 39, Cip, Clin, Fos, Gm): 64 µg/mL (≈ 151 µM) | MIC ([2]; Staphylococcus aureus, Strain 40, Cip, Clin, Gm): > 64 µg/mL | MIC ([2]; Staphylococcus aureus, Strain 41, Cip, Clin): 64 µg/mL (≈ 151 µM) | MIC ([2]; Staphylococcus aureus, Strain 42, Cip, Clin, Gm): 64 µg/mL (≈ 151 µM) | MIC ([2]; Staphylococcus aureus, Strain 43, Cip, Clin, Gm): 64 µg/mL (≈ 151 µM) | MIC ([2]; Staphylococcus aureus, Strain 44, Cip, Clin, Gm, Rif, Dox): 64 µg/mL (≈ 151 µM) | MIC ([2]; Staphylococcus aureus, Strain 45, Cip, Clin, Gm, Rif, Dox, Fos): 64 µg/mL (≈ 151 µM) | MIC ([2]; Staphylococcus aureus, Strain 46, Clin, Fos): 64 µg/mL (≈ 151 µM) | MIC ([2]; Staphylococcus aureus, Strain 47, Cip, Clin, Gm): 64 µg/mL (≈ 151 µM) | MIC ([2]; Staphylococcus aureus, Strain 48, Cip, Clin): 64 µg/mL (≈ 151 µM) | MIC ([2]; Staphylococcus aureus, Strain 49, Cip, Gm): ≤ 0.06 µg/mL | MIC ([2]; Staphylococcus aureus, Strain 50, Cip, Clin, Gm, Rif, Dox): > 64 µg/mL | MIC50 ([2]; Staphylococcus aureus, S. aureus (50) Met-R, read-out: MIC 50%): > 64 µg/mL | MIC90 ([2]; Staphylococcus aureus, S. aureus (50) Met-R, read-out: MIC 90%): > 64 µg/mL
